Data taken from a melting point compilation (Tetko et al.).

| SMILES | melting point [°C] |
| --- | --- |
| Cc1ccnc2c1NC(=O)CN2 | 216 to 218 |
| Cc1cc2c(cc1Br)NCC(C)O2 (stereo not given) | 93 to 95 |
| O=c1[nH]c(S)nc2sccc12 | 315 to 317 |
| Clc1ccnc(-c2ccccc2)n1 | 69 to 71 |
| Nc1ccccc1-c1nc(-c2ccccc2)n[nH]1 | 177 to 179 |
| O=C(COc1ccc2c(c1)CCC2)c1ccc(Cl)c(Cl)c1 | 89 to 91 |
| Cc1nn(Cc2cccc(Cl)c2)cc1C(=O)O | 167 to 169 |
| O=S(=O)(Cl)c1ccc2c(c1)S(=O)(=O)CC2 | 128 to 130 |
| COc1ccc(NCc2ccc(N(C)C)cc2)cc1 | 102 to 104 |
| NNc1nc(C(F)(F)F)cs1 | 122 to 124 |
| O=C1COc2c1ccc(Cl)c2Cl | 141 to 143 |
| Nc1cnn(-c2nccs2)c1 | 89 to 91 |
| Cc1nc(-c2ccc(F)cc2)sc1C(C)O (stereo not given) | 113 to 115 |
| Clc1cc(-c2ncc[nH]2)ccn1 | 187 to 189 |
| Cn1c(=O)[nH]c2cnccc21 | 266 to 268 |
| NNc1ccccc1S(=O)(=O)N1CCOCC1 | 141 to 143 |
| Clc1cnc(Cl)c(-c2ccccc2)n1 | 52 to 54 |
| NC(=O)C1CC2CCCCC2N1 (stereo not given) | 123 to 125 |
| Cc1ccccc1-n1c(S)nnc1-c1ccncc1 | 280 to 282 |
| Cc1cc(-c2cccc(F)c2)nnc1Cl | 132 to 134 |
| Cc1cc(Cl)nc2c(C(C)C)cccc12 | 43 to 45 |
| Cc1cc(C)c(S(=O)(=O)N2CCC(C(=O)O)CC2)c(C)c1 | 181 to 183 |
| CCCn1cc(C(=O)O)c2ccccc21 | 155 to 157 |
| Cc1cccc(-c2nc(N)n[nH]2)c1[N+](=O)[O-] | 242 to 244 |
| Nc1ccc(N2CCOCC2)c(S(=O)(=O)Nc2ccccc2Cl)c1 | 219 to 221 |
| O=C(O)c1cc(-c2ccccc2F)nc2onc(C3CC3)c12 | 182 to 184 |

| SMILES | melting point [°C] |
| --- | --- |
| O=C(O)c1cc2ccccc2c(Nc2ccccc2F)n1 | 224 to 226 |
| Nc1cc(CCCc2cccs2)no1 | 43 to 45 |
| Cc1ccc2[nH]cnc2c1C | 169 to 171 |
| N=c1ccc2sc(N)nc2[nH]1 | 193 to 195 |
| O=C1COc2cc(S)c(Cl)cc2N1 | 256 to 258 |
| O=[N+]([O-])c1ccc(Br)c2c1CNCC2 | 81 to 83 |
| COc1cc(C=O)c([N+](=O)[O-])cc1OCC(F)F | 139 to 141 |
| Cn1c(S)nnc1CC1CCS(=O)(=O)C1 (stereo not given) | 237 to 239 |
| N#CCc1nc(N)nc(N)n1 | 280 to 282 |
| CC(C)C1(C)NC(=O)NC1=O (stereo not given) | 176 to 178 |
| COc1cc(C=O)ccc1OC(=O)c1cccs1 | 64 to 69 |
| O=C1NCCc2ccc(S(=O)(=O)Cl)cc21 | 188 to 190 |
| Nc1ccccc1NC(=O)N1CCCC1 | 127 to 129 |
| CC(=O)c1nnn(-c2ccc(F)cc2)c1C | 77 to 79 |
| O=C(O)C=Cc1cc(Cl)ccc1OCc1ccc(F)cc1 | 166 to 168 |
| CC(C)(C)c1nn(-c2ccccc2Cl)cc1C=O | 111 to 113 |
| Nc1cc(Cl)c(Cl)cn1 | 140 to 142 |
| O=C(O)[C@@H](Cl)c1ccccc1 | 56 to 58 |
| O=C1NCCNC1(O)C(F)(F)F (stereo not given) | 144 to 146 |
| COCc1nc(Cl)c2c(-c3ccccc3)csc2n1 | 62 to 64 |
| Cc1ccc(S(=O)(=O)Nc2ccccc2Br)cc1 | 88 to 90 |
| Cc1cn2c(n1)CNCC2 | 100 to 102 |
| O=C1c2ccccc2C(=O)N1CCCS(=O)(=O)Cl | 59 to 61 |
| CN1C(=O)c2cccc(N)c2C1=O | 199 to 201 |
| CC1C(=O)NC(=O)N1c1ccc(F)cc1 (stereo not given) | 187 to 189 |
| NC(=S)N1CCc2sccc2C1 | 109 to 111 |

| SMILES | melting point [°C] |
| --- | --- |
| Oc1ccc(I)nc1 | 185 to 187 |
| O=c1[nH]c2c(s1)CCC2 | 142 to 144 |
| Cc1c(S(=O)(=O)Cl)oc2ccc(F)cc12 | 81 to 83 |
| O/N=C(/Cc1nc2ccccc2[nH]1)c1cccs1 | 207 to 209 |
| CC(C)(C)c1ccc(-c2nnc(S)n2N)cc1 | 105 to 106 |
| CNS(=O)(=O)c1ccc2c(c1)NCC2 | 86 to 88 |
| Nc1cnn(-c2ccccc2)c1 | 95 to 97 |
| NC(=O)c1ccc(S(N)(=O)=O)s1 | 214 to 216 |
| CC(C)(C)C(N)CN1CCc2ccccc2C1 (stereo not given) | 62 to 64 |
| Cn1c(=O)c(Br)c(N)n(Cc2ccccc2)c1=O | 210 to 212 |
| NS(=O)(=O)N1CCOCC1 | 161 to 163 |
| COc1ccc(C(=O)O)cc1S(=O)(=O)N1CCCCCC1 | 190 to 194 |
| O=c1[nH]c(CNCC2CCCO2)nc2ccccc12 (stereo not given) | 128 to 132 |
| COC(=O)c1ccccc1CS(=O)(=O)F | 89 to 91 |
| O=C1CCS(=O)(=O)O1 | 69 to 71 |
| O=C(O)C1CCN(C(=O)c2ccc(Br)cc2)CC1 | 202 to 204 |
| Cc1cc(=O)[nH]c(-c2cccc(N)c2)n1 | 212 to 214 |
| O=C(O)C1(c2cccc(C(F)(F)F)c2)CCOCC1 | 147 to 149 |
| O=Cc1cc(-c2ccccc2)cs1 | 63 to 65 |
| Nc1nncc(-c2cc(F)ccc2F)n1 | 239 to 241 |
| NCc1ccc(-c2cccnc2)cc1 | 66 to 68 |
| Nc1nn2cc(-c3ccccc3)nc2s1 | 183 to 185 |
| CC1(O)CCC(N)CC1 (stereo not given) | 89 to 91 |
| O=c1cc(I)cnn1Cc1ccccc1 | 156 to 158 |
| CN(C)C1CCN(c2ccc(N)cc2)CC1 | 119 to 121 |
| CC(C)(C)c1ccc(C2(CN)CCCC2)cc1 | 62 to 64 |

Further lines, results first:

| melting point [°C] | SMILES |
| --- | --- |
| 270 to 285 | CCn1c(=O)c(=O)[nH]c2cc(C(=O)O)ccc21 |
| 161 to 163 | COc1ccc(N)cc1OCC(N)=O |
| 179 to 181 | COC(=O)c1cc(=O)c2cc(Cl)ccc2[nH]1 |
| 110 to 112 | Cc1nn(CCO)c2ncc(Br)cc12 |
| 155 to 157 | Cc1cccc(COc2ccccc2C(=O)O)c1 |
| 116 to 118 | COc1ccc(Br)cc1CCC(=O)O |
| 94 to 96 | CC(CCc1ccccc1)NS(=O)(=O)c1ccc(Cl)c(C(=O)O)c1 (stereo not given) |
| 139 to 141 | Cc1c(CCC(=O)O)cnn1C |
| 184 to 186 | O=C(O)CCc1ncc(-c2ccccc2Cl)o1 |
| 63 to 65 | CC(C)COC(C)C(N)=NO (stereo not given) |
| 110 to 112 | Cc1ccc(NCCC#N)cc1 |
| 73 to 75 | O=C(CC(F)(F)F)c1ccc(Br)cc1 |
| 53 to 55 | CCNC(=O)NCCO |
| 45 to 47 | CCC(C)C(O)C(=O)O (stereo not given) |
| < 17 | CN(C)C(=O)CSc1ccccc1C(=O)O |
| 152 to 154 | Cc1cc(C(=O)O)nn1-c1ccc(F)cc1 |
| 219 to 221 | Cc1ccc(-n2nc(Br)cc2C(=O)O)cc1 |
| 187 to 189 | O=C(O)c1cnc(-c2ccccc2F)s1 |
| 113 to 115 | CCCCC1(c2ccc(F)cc2)NC(=O)NC1=O (stereo not given) |
| 79 to 81 | COC(=O)c1cc(S(=O)(=O)Cl)ccc1Cl |
| 178 to 182 | O=C(Nc1ccccc1C(=O)O)c1ccccc1 |
| 169 to 171 | O=C(O)C(=O)Cc1ccc(Cl)c(Cl)c1 |
| 85 to 87 | CC(C)CNC(=O)NC(=O)C(C)Cl (stereo not given) |

| melting point [°C] | SMILES |
| --- | --- |
| 117 to 119 | Cc1cccc(C)c1CC(=O)O |
| 169 to 171 | CC(C)(C)OC(=O)Nc1ccc(CC(=O)N2CCNCC2)cc1 |
| 126 to 128 | CC(C)NC(=O)C1CCCC(N)C1 (stereo not given) |
| 153 to 155 | COC(=O)c1cc(C(=O)OC)cc(-n2c(C)cc(C(=O)CCl)c2C)c1 |
| 133 to 135 | CNC(=O)CC(N)=S |
| 69 to 71 | O=C(O)CCCNCc1ccccn1 |
| 185 to 187 | O=C(CCl)Nc1ccccc1C(=O)O |
| 158 to 160 | O=C(O)c1cnc(Cl)cc1Cl |
| 158 to 160 | CC(C)NC(=O)C(=O)NN |
| 339 to 341 | CCOC(=O)Nc1nc2ccc(N)cc2s1 |
| 154 to 156 | O=C(O)CNc1ccc(Br)cc1 |
| 197 to 199 | O=C(O)CC(NC(=O)c1ccccc1)c1ccccc1 (stereo not given) |
| 167 to 169 | COc1ccc(-c2[nH]c3ccccc3c2CCC(=O)O)c(OC)c1 |
| 54 to 56 | COC(=O)c1nscc1N |
| 231 to 233 | Cn1cc(C(=O)Nc2ccc(O)cc2)cn1 |
| 177 to 179 | Cc1cc(C(=O)NN)c2ccccc2n1 |
| 116 to 118 | Cc1ccc(C(=O)C(Br)CC(=O)O)cc1 (stereo not given) |
| 217 to 219 | CC(C)(C)OC(=O)N1CCC(NC(N)=O)CC1 |
| 114 to 116 | O=C(CO)NC1CCCc2ccccc21 (stereo not given) |
| 104 to 106 | COC(C)(C)C(N)=NO |
| 159 to 161 | Cc1cc(C(=O)O)c(F)cc1F |
| 188 to 190 | CC1CN(S(=O)(=O)c2cccc(C(=O)O)c2)CC(C)O1 (stereo not given) |
| 130 to 132 | O=C(O)CCn1ncc(=O)c2ccccc21 |

| melting point [°C] | SMILES |
| --- | --- |
| 139 to 141 | CC(C)(C)OC(=O)Nc1snnc1C(=O)O |
| 170 to 172 | CNC(=O)c1ccc(Cl)nn1 |
| 209 to 211 | Cc1cc(NC(=O)Nc2cc(C)nn2C)n(C)n1 |
| 154 to 156 | O=C(O)c1cc(Br)cc(S(=O)(=O)Cl)c1 |
| 160 to 162 | Cc1cc(C(=O)NN)c(C)n1-c1ccc(F)cc1 |
| 106 to 108 | COc1cc(N)c(C(=O)O)c(OC)c1 |
| 67 to 69 | CC(Oc1cccc(C(C)(C)C)c1)C(=O)O (stereo not given) |
| 74 to 76 | CNC(=S)NCc1ccco1 |
| 102 to 104 | Cc1ccc(N)c(C)c1O |
| 284 to 286 | Cn1cnc2cc(C(=O)O)cnc21 |
| 124 to 126 | N#CCC(=O)Nc1ccccc1Cl |
| 65 to 67 | CNCc1ccc(C(=O)NC)o1 |
| 106 to 108 | NC(=O)Cc1cccc(C(F)(F)F)c1 |
| 158 to 160 | CC(=O)CSc1ccccc1C(=O)O |
| 71 to 74 | Cc1c(Cl)cccc1NC(=O)CCl |
| 35 to 37 | CC(C)NC(CCO)C1CCCCC1 (stereo not given) |
| 193 to 195 | COc1cc(C(=O)O)cc([N+](=O)[O-])c1OC |
| 130 to 132 | CS(=O)(=O)CCOc1ccc(Br)cc1 |
| 48 to 50 | CCOC(=O)c1cc(C2CC2)nc2onc(C(C)C)c12 |
| 149 to 151 | Cc1ccc(Cl)c(NC(=O)C(C)Cl)c1Cl (stereo not given) |
| 59 to 61 | O=C(O)C1COCCO1 (stereo not given) |
